Data published in paper PMC6874530, “Structural analysis identifies an escape route from the adverse lipogenic effects of liver X receptor ligands” (Communications Biology, 2019).
“And” between values parts separate entries of the source, which are not always exact repeats. Equal entries are not always repeated. Where two headings read alike, the source gives them in different places.

Assays:
plasma triglycerides = assay: plasma TG induction in C57BL/6 mice vs plasma compound concentration (log-linear model); type: in vivo, mouse; details: for TG induction in plasma m (scaling factor) / TG induction in plasma C2, drug concentration corresponding to a twofold increase in TG levels: (% RSE); for TG induction in plasma Attributed class: mouse, in vivo
Experimental: Male C57BL/6JOlaHsd mice were retrieved from Harlan Laboratories (Horst, The Netherlands) around 7 weeks of age. […] Mice were given ad libitum access to water and standard rodent chow during the studies.
Compounds were given daily by oral gavage, 5 ml kg^−1, at doses ranging from 0.1 to 100 μmol kg^−1 of body weight for 4 days. Animals were terminated 3 h after the last dose.
At termination, the whole-blood volume was drawn from isoflurane-anesthetized mice via an incision in the carotid artery into EDTA blood tubes (S-Monovette®, EDTA KE/1.3 mL, Sarstedt, Nümbrecht, Germany or BD Microtainers®, Benton, Dickinson and Company, Franklin Lakes, New Jersey, USA). Blood samples were placed on ice and centrifuged within an hour (15 min, 2500 × g, 4 °C or 5 min, 16000 × g, 4 °C). The plasma was then dispensed in separate tubes and kept at −80 °C for later analysis of compound concentration and TG levels. For the analysis of intestinal Abca1 transcript levels, a 3–5-mm long segment of the duodenum was excised and cleared from any gut contents. Tissues were instantly snap frozen in liquid nitrogen and stored at −80 °C.
Plasma triglyceride levels were analyzed by using the Triglycerides/Glycerol Blanked reagent kit (Roche Diagnostics GMBH, Mannheim, Germany). Samples were measured on an ABX Pentra 400 instrument (Horiba Medical, Irvine, California, USA) or Cobas Mira plus instrument (Roche Diagnostics Corporation, Indianapolis, USA). […] Absorbance was measured by using a Tecan Infinite M200 plate reader (Tecan Austria GmbH, Salzburg, Austria).
About 25 µL of plasma was precipitated with 150 µL of cold acetonitrile containing 0.2% formic acid. […] Sample analysis was performed by using a reversed-phase high-pressure liquid chromatography system coupled to a Quattro Ultima triple-quadrupole mass spectrometer (Waters, UK). A rapid 2-min 4–90% (vol/vol) acetonitrile (containing 0.2% formic acid) gradient was used for chromatographic separation.
To rank the compounds, the drug concentration (C2) needed to generate a twofold increase in plasma TG was estimated by rearranging Eq. (2):3 C2=exp^2fold−BL−1/m^1/γ

LXRα LBD [1] = target: T1, LXRα LBD (Homo sapiens, UniProt Q13133); assay: biochemical
T1 sequence (Q13133 200-447): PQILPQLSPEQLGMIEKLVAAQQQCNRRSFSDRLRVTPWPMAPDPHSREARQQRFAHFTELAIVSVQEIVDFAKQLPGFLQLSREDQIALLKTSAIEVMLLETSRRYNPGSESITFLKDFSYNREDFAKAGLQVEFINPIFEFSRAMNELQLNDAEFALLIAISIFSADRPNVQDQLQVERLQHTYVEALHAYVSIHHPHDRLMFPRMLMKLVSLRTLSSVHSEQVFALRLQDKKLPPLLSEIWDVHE
Excerpt: The compounds were run in triplicate (binding assay) or in quadruplicate (transactivation assay). Standard deviations are indicated for individual experiments run more than once.

LXRβ LBD = target: T2, LXRβ LBD (Homo sapiens, UniProt P55055); assay: differential HDX-MS of LXRβ LBD (apo vs ligand-bound); design: human his-tagged LXRβ LBD (216-461); His tag; made in house; host or cells: Escherichia coli BL21(DE3); details: after 30 s of deuterium exchange
T2 sequence (P55055 215-460 limits assumed): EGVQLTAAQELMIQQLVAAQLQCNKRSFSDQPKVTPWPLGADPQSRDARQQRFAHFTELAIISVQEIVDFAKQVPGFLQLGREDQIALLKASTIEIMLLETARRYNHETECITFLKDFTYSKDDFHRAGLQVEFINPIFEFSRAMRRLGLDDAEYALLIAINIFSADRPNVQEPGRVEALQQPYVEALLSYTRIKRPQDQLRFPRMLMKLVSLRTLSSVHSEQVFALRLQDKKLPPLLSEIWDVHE
Experimental: (§1) Prior to the deuterium incorporation experiments, 10 µM apo LXR was incubated with 10× excess of ligand or equal volume of DMSO for 30 min at room temperature. In the experiments with cofactors, 15× excess of the SRC1 coactivator peptide and the NCOR1 corepressor peptide were added to the ligand-bound or apo proteins, respectively, and incubated for 30 min at room temperature. […] A fully deuterated sample was generated by incubating protein with 4 M guanidine-HCl in D2O for 30 min at 45 °C. Exchange reactions were performed with a CTC PAL sample handling robot (LEAP Technologies). Labeling times were 30, 60, 180, 600, and 1800 s in the kinetics experiments. Differential HDX of a complete compound selection was measured after 30 and 600 s of labeling time points. Reactions were conducted by incubating 4 µl of LXR with 50 µl of D2O buffer (containing 25 mM Tris-HCl (pD 7.6), 50 mM NaCl, 10% glycerol, and 1 mM TCEP). The exchange reaction was stopped by the addition of 50 µl of quench solution (3 M urea, 0.1% TFA) followed by immediate injection into a Enzymate BEH Pepsin 2.1 × 30 mm Column (Waters, UK) for protein digestion (2 min at 24 °C). Peptic digest was further injected on a Waters nanoACQUITY UPLC System where peptides were first desalted by trapping for 3 min on a VanGuard Pre-Column Acquity UPLC BEH C18 (1.7 μm; 2.1 × 5 mm), and then eluted over a 6-min 5–40% (vol/vol) acetonitrile (containing 0.1% formic acid) gradient into a Waters Synapt G2-Si mass spectrometer. Peptide separation was conducted at 0.1 °C. All exchange reactions were performed in triplicates.
(§2) Peptides from three samples of non-deuterated LXR were identified by using the ProteinLynx Global Server (PLGS Waters, UK). Peptides with an intensity of over 5000, a mass error < 5 ppm, and present in at least two of the three data acquisitions were pooled and imported into the DynamX data analysis software (Waters, UK). After a first round of automated spectral processing by using DynamX, each peptide was inspected manually for suitability for further analysis.
(§3) For pairwise comparison, MEMHDX software was used to identify statistically significant changes of deuterium uptake. For all peptides, a value of relative exchange per amino acid was corrected to back exchange. The mean deuteration level per amino acid was calculated by using Matlab (Mathworks)[69] and subsequently mapped onto the crystal structures with PyMOL (Schrodinger LLC). For structural representation, loop modeling with MOE (Chemical Computing Group Inc.) was applied on 2ACL.pdb file for LXRα LBD, and 1PQC.pdb for LXRβ LBD.

LXRα LBD [2] = target: T1, LXRα LBD; assay: differential HDX-MS of LXRα LBD (apo vs ligand-bound); design: Human his-tagged LXRα LBD (200-447); His tag; made in house; host or cells: Escherichia coli BL21(DE3); details: for stabilization of LXRα H12: HDX-MS; for protection of LXRα H3 from deuterium exchange: after 600 s of deuterium exchange
Experimental: as §1, §2, §3

[3] = Receptor-binding affinity pKi LXRα, value (SD, n independent experiments)

| SMILES | TG induction in plasma m (scaling factor) (plasma triglycerides) | TG induction in plasma Attributed class (plasma triglycerides) | TG induction in plasma C2, drug concentration corresponding to a twofold increase in TG levels (plasma triglycerides) | Ki (LXRα LBD [1]; [3]) | protection of LXRβ H11–H12 from deuterium exchange (LXRβ LBD) | stabilization of LXRα H12 (LXRα LBD [2]) | protection of LXRα H3 from deuterium exchange (LXRα LBD [2]) | Ki (LXRα LBD [1]; binding affinity to LXRα) | TG class (plasma triglycerides) | trend in plasma TG levels (plasma triglycerides; within the explored concentration range) | Ki (LXRα LBD [1]) |
| --- | --- | --- | --- | --- | --- | --- | --- | --- | --- | --- | --- |
| CN(C)C(=O)c1cccc(CCCCNC2=C(c3ccccc3)S(=O)(=O)N(C(C)(C)C)C2=O)c1 [AZ1] | 3.88 (30) | Lipogenic | 0.214 (58) μM | 91.2 nM |  |  |  |  |  |  |  |
| CC(CCCc1cccc(S(N)(=O)=O)n1)NC1=C(c2ccccc2)S(=O)(=O)N(C(C)C)C1=O (centres unmarked) [AZ2] | 9.28 (63) |  | 0.041 (120) μM | 91.2 nM |  |  |  |  |  |  |  |
| CC(C)N1C(=O)C(NCCCCc2cccc(S(N)(=O)=O)n2)=C(c2ccccc2)S1(=O)=O [AZ3] | 0.897 (20) |  | 3.42 (38) μM | 501 nM | 17-25% |  |  |  |  |  |  |
| CC(C)(C)N1C(=O)C(NC2CCN(c3ncc(CC(=O)O)cc3Cl)CC2)=C(c2ccccc2)S1(=O)=O [AZ4] | 1.47 (28) |  | 1.35 (54) μM | 355 nM |  |  |  |  |  |  |  |
| CN(C)C(=O)c1cnc(N2CC[C@@H](CNC3=C(c4ccccc4)S(=O)(=O)N(C(C)(C)C)C3=O)C2)c(Cl)c1 [AZ5] |  |  |  | 2140 nM |  | did not stabilize LXRα H12 | no effect |  |  |  |  |
| CC(C)N1C(=O)C(NC2CCN(c3ncc(CC(=O)O)cc3Cl)CC2)=C(c2ccccc2)S1(=O)=O [AZ6] |  | Non-lipogenic |  | 1580 nM | 17-25% |  |  |  |  |  |  |
| CC(C)(C)N1C(=O)C(Cc2ccccc2)=C(NC2CCN(c3ncc(CC(=O)O)cc3Cl)CC2)C1=O [AZ7] |  | Non-lipogenic |  | 1070 nM |  |  |  | 1000 nM |  |  |  |
| O=C1C(Cc2ccccc2)=C(NCCCCc2ccccc2)C(=O)N1Cc1ccccc1 [AZ8] |  | Non-lipogenic |  | 195 nM | 17-25% |  | no effect |  |  |  |  |
| CC(C)(O)c1cn(-c2ccc(-c3cc(F)c(CO)c(S(C)(=O)=O)c3)cc2F)c(C(C)(C)c2c(Cl)cccc2Cl)n1 [BMS-852927] | 0.066 (18) | Non-lipogenic | 477 μM and 477 (35) μM |  |  | did not stabilize LXRα H12 | 60% |  | non-lipogenic |  |  |
| O=C(O)Cc1ccc(CNC(=O)[C@@H]2Cc3ccccc3N2S(=O)(=O)c2ccc(-c3ccccc3C(F)(F)F)cc2)cc1 [F1, reference compound] | 12.1 (38) | Lipogenic | 0.025 (72) μM | 10.2 nM |  | did not stabilize LXRα H12 |  | 10 nM |  |  |  |
| O=C(O)Cc1cccc(OCCCN(Cc2cccc(C(F)(F)F)c2Cl)CC(c2ccccc2)c2ccccc2)c1 [GW3965, reference compound] | 0.244 (18) | Non-lipogenic | 40.2 μM and 40.2 (33) μM | 158 nM |  |  |  |  | non-lipogenic |  |  |
| Fc1ccc(-c2c3cccc(C(F)(F)F)c3nn2Cc2ccc(F)cc2Cl)cc1 [LXR-623, reference compound] |  | Non-lipogenic |  |  |  |  | no effect |  | non-lipogenic | no trends toward increased TG levels | 490 nM |
| O=S(=O)(c1ccccc1)N(CC(F)(F)F)c1ccc(C(O)(C(F)(F)F)C(F)(F)F)cc1 [T0901317, reference compound] | 0.784 (17) | Lipogenic | 4.41 (33) μM |  | 17-25% |  |  |  |  |  |  |
